A word on the pEC50: it is −log10 of the EC50, conventionally taken in molar units. The low end stands for a large EC50, the high end for a small EC50.

Each structure is given as a SMILES string. pEC50: −log10 of the molar value.

The text below walks through data of ChEMBL document CHEMBL5727810, “GLP-1 receptor agonists and uses thereof” (2020).

Assay [1] is described as follows: CHO GLP-1R Clone H6 Assay 1: GLP-1R-mediated agonist activity was determined with a cell-based functional assay utilizing an HTRF (Homogeneous Time-Resolved Fluorescence) cAMP detection kit (cAMP HI Range Assay Kit; CisBio cat #62AM6PEJ) that measures cAMP levels in the cell. The method is a competitive immunoassay between native cAMP produced by the cells and exogenous cAMP labeled with the dye ….
Description: The method is a competitive immunoassay between native cAMP produced by the cells and exogenous cAMP labeled with the dye d2. The tracer binding is visualized by a mAb anti-cAMP labeled with Cryptate. […] A 1 mL sample of the cell suspension in growth media was counted on a Becton Dickinson ViCell to determine cell viability and cell count per mL. […] Following the 30 minute incubation, 10 μL of labeled d2 cAMP and 10 μL of anti-cAMP antibody (both diluted 1:20 in cell lysis buffer; as described in the manufacturer's assay protocol) were added to each well of the assay plate. […] Raw data were converted to nM cAMP by interpolation from a cAMP standard curve (as described in the manufacturer's assay protocol) and the percent effect was determined relative to a saturating concentration of the full agonist GLP-17-36 (1 μM) included on each plate. EC50 determinations were made from agonist dose-response curves analyzed with a curve fitting program using a 4-parameter logistic dose response equation.

Assay [2] in a line: CHO GLP-1R Clone C6 Assay 2: GLP-1R-mediated agonist activity was determined with a cell-based functional assay utilizing an HTRF (Homogeneous Time-Resolved Fluorescence) cAMP detection kit (cAMP HI Range Assay Kit; Cis Bio cat #62AM6PEJ) that measures cAMP levels in the cell. The method is a competitive immunoassay between native cAMP produced by the cells and exogenous cAMP labeled with the dye …. (In general: TR-FRET usually uses a lanthanide donor and a delayed reading to cut background.)
Description: The method is a competitive immunoassay between native cAMP produced by the cells and exogenous cAMP labeled with the dye d2. The tracer binding is visualized by a mAb anti-cAMP labeled with Cryptate. The specific signal (i.e. energy transfer) is inversely proportional to the concentration of cAMP in either a standard or an experimental sample.The human GLP-1R coding sequence (NCBI Reference Sequence NP_002053.3, including naturally-occurring variant Leu260Phe) was subcloned into pcDNA5-FRT-TO and a clonal CHO cell line stably expressing a low receptor density was isolated using the Flp-In™ T-Rex™ System, as described by the manufacturer (ThermoFisher). […] Following the 30 minute incubation, 10 μL of labeled d2 cAMP and 10 μL of anti-cAMP antibody (both diluted 1:20 in cell lysis buffer; as described in the manufacturer's assay protocol) were added to each well of the assay plate. […] Raw data were converted to nM cAMP by interpolation from a cAMP standard curve (as described in the manufacturer's assay protocol) and the percent effect was determined relative to a saturating concentration of the full agonist GLP-1 (1 μM) included on each plate. EC50 determinations were made from agonist dose response curves analyzed with a curve fitting program using a 4-parameter logistic dose response equation.

In the case of `COCCn1c([C@@H]2CC23CCN(c2cccc4c2OC(C)(c2ccc(Cl)cc2F)O4)CC3)nc2ccc(C(=O)OC)cc21` (some centres not stated), the negative-log EC50 (pEC50) in assay [1] is less than 4.74; in assay [2], less than 4.70.
As for `C[C@]1(c2ccc(Cl)cc2F)Oc2cccc(C3CCN(Cc4nc5ccc(C(=O)O)cc5n4Cc4ncco4)CC3)c2O1`, the values for the pEC50 in assay [1] and in assay [2] were 8.35 and 7.42, respectively.
Consider `COCCn1c(CN2CCC(c3cccc4c3OC(c3ccc(Cl)cc3F)O4)CC2)nc2ccc(C(=O)O)cc21` (single isomer, unassigned), for which the pEC50 in assay [2] is less than 4.70.
Turning to `COCCn1c([C@H]2CC23CCN(c2cccc4c2OC(C)(c2ccc(Cl)cc2F)O4)CC3)nc2ccc(C(=O)OC)cc21` (some centres not stated), the values for the pEC50 in assay [1] and in assay [2] were 8.11 and 6.92, respectively.
In the same order, the values of `COCCn1c(CN2CCN(c3cccc4c3O[C@@H](c3ccc(Cl)cc3F)O4)CC2)nc2ccc(C(=O)OC)cc21` are 8.18 and 6.59.
With `COCCn1c(CN2CCN(c3cccc4c3O[C@H](c3ccc(Cl)cc3F)O4)CC2)nc2ccc(C(=O)OC)cc21`, the pEC50 was 6.06 in assay [1] and less than 4.70 in assay [2].
`COCCn1c(C2CC23CCN(c2cccc4c2OC(C)(c2ccc(Cl)cc2F)O4)CC3)nc2ccc(C(=O)O)cc21` (configuration not stated) gave a negative-log EC50 (pEC50) in assay [2] of less than 4.70.
